Measurements published in a melting point compilation (Tetko et al.; mined from patent text by program, amines drawn as free bases though some values may be those of a salt).

Compound | melting point [°C]
CC(C)C1C(=O)NC(c2ccc(NC(=O)CCl)cc2)c2ccccc21 (stereo unspecified) | 269 to 270
CC(C)(C)OC(=O)CN(Cc1cccc(Cl)c1)S(=O)(=O)c1ccc2c(Cl)cnc(Cl)c2c1 | 141 to 143
COC(=O)c1nc(C)n2c1CNC(c1ccccc1)c1cc(Cl)ccc1-2 (stereo unspecified) | 233 to 235
CCOC(=O)c1[nH]c(C)c(CC)c1CC | 76 to 77
N#CCCCN1C(=O)C(O)(c2cccc(Cl)c2)c2ccccc21 (stereo unspecified) | 124 to 126
CN(C)C=Cc1ccncc1C#N | 80 to 83
CCCCCCCCCCCCCCCCS(=O)(=O)Nc1ccc(OC)c(NC(=O)CC(=O)C2(C)COC(C)(C)OC2)c1 | 68 to 70
CCOC(=O)C1=C[C@@H](O)[C@H](NC(C)=O)[C@@H](NC(=O)OC(C)(C)C)C1 | 177 to 178
COCOc1c(C)c(OC)c(OCOC)c(CCCCCc2c(OC)c(OCOC)c(C)c(OC)c2OCOC)c1OC | 83 to 84
N#CCCCCCCn1c(-c2ccccc2)c(-c2ccccc2)n(-c2ccccc2)c1=O | 100 to 101
Cc1oc(-c2ccc(C(F)(F)F)cc2)nc1-c1cccc(-c2ccc(OCC(=O)O)cc2)c1 | 178 to 179
O=c1ccn(CCO)c(C(O)c2ccc(Br)cc2)c1O (stereo unspecified) | 189 to 193
CCc1nnc2ccc(-c3ccc(C(F)(F)F)cc3)nn12 | 194 to 196
CCCCCCCCCCCCNC(=O)c1cc(-c2ccc(OC)cc2)c(OCC(=O)O)c(-c2cccc(Cl)c2)c1 | 114 to 117
O=c1[nH]c2ncc(Cl)cc2o1 | 184 to 186
CN(C)CCOc1ccc(C=NO)cc1 | 95 to 96
CC(C)Sc1ccc(NC(=O)c2cc(Cl)ccc2NS(=O)(=O)c2ccc(Cl)cc2)cc1 | 168 to 169
CCOC(=O)CC(NC(=O)C=CS(=O)c1ccccc1)C(=O)OCC (stereo unspecified) | 121 to 123
O=C(NCCCCCOc1ccc(-n2ccnc2)cc1)c1ccc(Br)cc1 | 150 to 151
CN(C)c1nc2cc(N)ccn2n1 | 236 to 238
COC(=O)C(O)c1ccccc1Nc1c(Cl)cccc1Cl (stereo unspecified) | 123 to 124

Compound | melting point [°C]
COC(=O)Cc1cccc(C(=O)c2ccccc2)c1N | 52 to 54
CCCCCCCCCCCCCCCCCCNC(=O)OCC(CNS(=O)(=O)CCCI)n1nnnc1C (stereo unspecified) | 82.5 to 83.5
CC(=O)CCCN1C(=O)c2ccccc2S1(=O)=O | 90 to 93
Cc1ccccc1OCc1ccccc1I | 106 to 108
CC(=O)CC1NC(=O)c2sccc2-n2cccc21 (stereo unspecified) | 268
O=C(Cl)C=Cc1c(Cl)cccc1Cl | 64.5 to 66
Cc1oc2c(C)c(C)c(NC(=O)c3ccccc3)c(C)c2c1-c1ccc(C(C)C)cc1 | 225 to 227
CCCC(C)C(=O)Oc1c(I)cc(I)cc1I (stereo unspecified) | 66 to 68
COC(=O)c1ccc(Br)cc1CBr | 78 to 79
O=C(O)C(S)=Cc1ccc(C(F)(F)F)o1 | 158
COC1=C(OC)C(=O)C(CCCCCCCCCCO)=C(C)C1=O | 52
COc1ccc(C(=NO)c2cc(F)ccc2F)c(O)c1Cl | 209 to 210
CC1(C)CCC(C)(C)c2cc(C(O)C(=O)Nc3ccc(C(=O)O)cc3)ccc21 (stereo unspecified) | 220 to 221
Clc1ccc2c(c1)C(c1ccccc1)=NCc1nnc(Br)n1-2 | 206
Cc1csc(C)c1N(Cn1cccn1)C(=O)CCl | 88 to 89
O=C1CC(c2cccc([N+](=O)[O-])c2)=Nc2ccc(C#Cc3ccccc3)cc2N1 | 228 to 229
O=C(CC1CCN(Cc2ccccc2)CC1)Nc1noc(C2CN3CCC2CC3)n1 (stereo unspecified) | 133 to 134
CN(C)c1cccc(OC(=O)NC2C(=O)N(CCC(C)(C)C)c3ccccc3N(c3ccccc3F)C2=O)c1 (stereo unspecified) | 160 to 161
CCN(CCCCCCCCN(CC)S(=O)(=O)c1ccc(C)cc1)S(=O)(=O)c1ccc(C)cc1 | 112 to 113
CCOC(=O)N1CC1C(N)=O (stereo unspecified) | 125 to 128
O[C@H]1c2ccc(OCc3ccccc3)cc2OC[C@H]1Oc1cccnc1 (relative stereo) | 73 to 75

Compound | melting point [°C]
N#Cc1ccc(-c2ccccc2F)c(F)c1 | 78 to 79
N=C(N)Cc1ccccc1-n1cnc2cnc3ccc(-c4ccccc4)cc3c21 | 261 to 263
CCOC(=O)Nc1c(Cl)cc(OC)c(OC)c1C(=O)OCC | 111 to 113
O=C(NCCSCc1cccc(F)c1)c1c(Cl)cccc1Cl | 70 to 72
CNc1nc(Cl)cc(NS(=O)(=O)c2ccccc2)n1 | 186 to 187
Cc1cc(C)nc(NC(=O)NS(=O)(=O)c2ccccc2S(=O)(=O)N(C)OCc2ccccc2)n1 | 186 to 192
CC1(C)OC(c2ccc(S(C)(=O)=O)cc2)=C(c2cccc([N+](=O)[O-])c2)C1=O | 158 to 159
CC(C)OC(=O)N[C@H](C(=O)N[C@H](CN)C(C)C)C(C)C | 106
CCCCCCCCCCCc1ccc(CCCC(N)(CO)CCO)cc1 (stereo unspecified) | 73 to 76
O=C(O)[C@H](Cc1ccc(C(F)(F)F)cc1)[C@@H](O)c1cccc2ccccc12 (racemic) | 151 to 152
Fc1cccc(-c2nc(-c3ccccn3)no2)c1 | 88 to 98
NC1CCc2ccccc2NC1=O (stereo unspecified) | 161 to 162
N#CC(C(=O)NC1CC1)C(=O)C1CC1 (stereo unspecified) | 136 to 138
CCn1ccccc1=S | 50
N=C(NNC(=O)c1ccccc1)C(Cl)(Cl)Cl | 170 to 172
CCC1(c2cccc(O)c2)CNCC(C)O1 (stereo unspecified) | 75 to 105
O=[N+]([O-])c1cccc(Nc2nccc(-c3cccnc3)n2)c1 | 212 to 213
CCOc1nc(NC(CC)CC)c([N+](=O)[O-])c(OCC)n1 | 38 to 40
O=C(CC1CCCC1)c1ccc[nH]1 | 49 to 51

Now from value to compound:

melting point [°C] | Compound
159 to 160 | C#CCc1c(C)nc2c(OCc3c(C)cccc3NC(=S)NC(=O)c3ccccc3)cccn12
163 to 164 | CC(=O)c1ccc(Cn2c3c(c4cc(F)cc(F)c42)CCCC3CC(=O)O)cc1 (stereo unspecified)
180 to 182 | C#Cc1cnc2c(C)cc(OC(SC)C(=O)NC(C)(C#N)CF)cc2c1 (stereo unspecified)
168 to 170 | CN1CC(c2ccc(S(C)(=O)=O)cc2)=C(c2cccc(Cl)c2)C1=O
260 | Oc1c2c3c(ccnc3c3ccccc13)CCC2
194 to 196 | CNc1nc(-c2cccc(NC(=O)c3ccccc3OC)c2)c2cc(OC)c(OC)cc2n1
203 to 204 | CCCCN(Cc1ccc(-c2ccccc2-c2nnn[nH]2)cc1)c1ncn(C)c1C(=O)OCC
155 to 156 | CC1Oc2cc3nc(SCc4ccccn4)[nH]c3cc2O1
233 | COc1ccc2cc(C(=O)NCc3cc([N+](=O)[O-])cc([N+](=O)[O-])c3)c(=O)oc2c1
127 to 129 | CCOC(=O)c1c(CCCn2cncn2)nc2sc3cnccc3c2c1-c1ccc(OC)c(OC)c1
200 to 205 | CN(Cc1cc(C(=O)O)ccc1N)C1CCCCC1
90 to 92 | CC#CCOc1ccc(C=O)cc1OC
178 to 183 | CNC(=O)c1ccccc1Nc1nc(Nc2ccc3c(c2)CCN(CCOC)CC3)ncc1Cl
160 to 161 | Nc1c(CC(=O)N2CCC(O)CC2)cccc1Oc1ccccc1F
183 to 186 | COC(=O)c1ccc(OC)cc1S(=O)(=O)NC(=O)Nc1nc(C)nc(OC)n1
> 400 | Nc1ccc(NC(=O)NCc2ccc3c(c2)CN(C2CCC(=O)NC2=O)C3=O)cc1 (stereo unspecified)
114 to 115 | CCSc1cnc(Oc2ccc(Cl)c(Cl)c2)c(C#N)c1
118 to 120 | Cc1c(OCCNC(=O)OC(C)(C)C)noc1-c1ccccc1
> 220 | ON=C1CCn2c1cc1ccccc12
221 to 223 | CC(C)=NNc1cc2c(nn1)CCN(C(=O)c1ccc(Cl)cc1)C2

melting point [°C] | Compound
180 | COc1cccn2c(=O)c(CCOS(C)(=O)=O)c(C)nc12
102 | COc1ccc2c(c1)CCC1C2CCC2(C)C1CCC2N(C)CCOCCO (stereo unspecified)
64.8 to 66 | CCc1cc(CC)nc(Sc2ccnc3cc(Cl)ccc23)n1
204 to 206 | O=C(Oc1ccc2c(=O)cc(N3CCOCC3)oc2c1)c1ccccc1
199 | O=c1[nH]cnc2c1CCN(Cc1ccccc1)C2
123 to 124 | Cc1cccc2cc(CN(Cc3cc(C(F)(F)F)cc(C(F)(F)F)c3)c3ncc(N4CCOCC4)cn3)c(N(CC3CC3)CC3CC3)nc12
> 200 | c1ccc(CN2CC3(COc4cc5c(cc43)CCO5)c3c(-c4cncnc4)cccc32)nc1 (stereo unspecified)
87 to 89 | COc1ccc2[nH]c(S(=O)Cc3ncnc(N4CCCCC4)c3C)nc2c1 (stereo unspecified)
180 | Cc1cc(C)c2nc(NC3CCN(CCCS(N)(=O)=O)CC3)n(Cc3nc(C)ccc3O)c2c1
93 to 94 | CC1CCCN1c1nccc(Oc2ccc(NC(=O)c3cc(F)cc(N4CCCCC4)c3)c3ccccc23)n1 (stereo unspecified)
115 to 117 | CN1CCC(c2c[nH]c3ccc(NC(=N)c4cccs4)cc23)C(F)C1 (stereo unspecified)
124 to 125 | COc1cc(CNc2cc(Cl)c(N=CN(C)C)c(Cl)c2)cc(OC)c1
142 | Cc1cc(C)nc(NC(=O)c2ccncc2)c1
99 to 100 | COc1ccc(C(=C/C=C/C(=O)NCCCCCc2ccccn2)c2ccc(OC)cc2)cc1
136 to 139 | COc1cc(OC)nc(C(=O)NS(=O)(=O)Oc2c(Cl)cccc2Cl)n1
210 to 215 | COc1cc(Nc2c(C#N)cnc3cc4cc(OCCN5CCC(O)CC5)c(OC)cc4cc23)c(Cl)cc1C
171 to 172 | CC(=O)N1CCN(Cc2cnc(-c3cc4c(C)ccc(N(C)S(=O)(=O)c5cccs5)c4[nH]3)s2)CC1
204 | COc1cc2c(cc1OC)CN(c1nc(N)c3cc(OC)c(OC)c(OC)c3n1)CC2
86 to 87 | CCOC(=O)c1cc(-c2ccc(OCCO[Si](C)(C)C(C)(C)C)cc2)n(-c2ccc(OC)cc2)n1
107 to 108 | O=C(C1CCN(c2ccncn2)CC1)N1CCN(Cc2ccccc2)CC1
